We go through 15 sequences from publication PMC10951066, “The self-reactive FVIII T cell repertoire in healthy individuals relies on a short set of epitopes and public clonotypes” (Frontiers in Immunology, 2024).

Test [1] has as its system CD4 T cells from healthy donors. In words: Large-scale CD4 T cell epitope mapping by IFN-γ ELISPOT (16 donors). The class given is cell-based, human. To be noted: for nb positive T cell lines: across all 16 donors; for cumulative donor coverage (%): cumulative over peptides ranked by donor coverage; for Donor coverage ( %): of 16 donors; for responding donors: of 16 healthy donors, individual peptide 10 µg/ml; for response intensity ( %): percentage of 872 FVIII-specific T cell lines. An excerpt:
PBMCs were purified from the whole blood of anonymous healthy donors, who gave informed consent (Etablissement Français du Sang, Rungis, France), using Ficoll-Paque®. Monocyte-derived dendritic cells (DCs) were produced from cells isolated using Percoll gradient by 5 days of culture in AIM-V medium (Invitrogen, Villebon-sur-Yvette, France) supplemented with 1,000 U/ml recombinant human (rh) IL-4 and rhGM-CSF (both from R&D Systems, Lille, France). Mature DCs were produced by two supplementary days of culture in the presence of LPS (1 µg/ml) and R848 (10µg/ml). CD4 T cells were isolated from autologous PBMCs by positive selection using magnetic labeling with anti-CD4 mAbs conjugated to magnetic microbeads followed by magnetic cell sorting, as recommended by the manufacturer (Miltenyi Biotec, Bergisch Gladbach, Germany). Immature DCs were loaded overnight at 37 °C with either 0.2 µM of rFVIII, 0.2 µM of ovalbumin, or 0.25 µM of KLH in 96-well U-bottom plates, while mature DCs were used for FVIII peptides (10 ug/ml). CD4 T cell lines were generated in vitro in IMDM (Invitrogen) supplemented with 10% human serum, 0.24 mM glutamine, 0.55 mM asparagine, 1.5 mM arginine (all amino acids from Sigma-Aldrich), 50 U/mL penicillin/50 μg/mL of streptomycin (Invitrogen), 20 IU/mL human IL-2, and 17 IU/ml human IL-7 (premium-grade; Miltenyi Biotec) by three once-per-week rounds of stimulation of CD4 T cells (200,000 per well) with autologous DCs (20,000 per well). 10,000 lymphocytes were collected at day 19 from each T cell line (expanded T cells contained in one well) and their specificity was assessed by using IFN-g ELISPOT.
The T cell lines and APCs were plated at equal number for both stimulated and unstimulated control conditions. […] The spot number was determined by using the ELISPOT Reader System (Autoimmun Diagnostika, Ebinger, Germany). HLA restriction was assessed using monoclonal antibodies (10 μg/ml) specific to HLA-DP (B7/21), HLA-DQ (SPVL3), or HLA-DR (L243).
Based on the T cell epitope prediction software NetMHCpan4.0 ([23]), we selected 63 20-mer peptides that are predicted for their ability to bind promiscuously, with a percentile score below 10%, at least four HLA class II molecules from a selection of 15 preponderant HLA-DR alleles in our panel (as shown in ST1). […] A total of 16 healthy donors with unrelated HLA typing (ST2) were used as sources of T cells to identify FVIII-specific CD4 T cell epitopes. Specific T cell lines were generated by in vitro T cell culture using FVIII and KLH. The peptide specificity of the T cell lines raised against FVIII was assessed by two independent IFN-γ ELISPOT using peptide pools and individual peptides. […] Furthermore, four independent healthy donors were used as sources of T cells to characterize the HLA restriction and to assess the reactivity of T cell lines generated with the 18 peptides toward rFVIII. T cell lines were amplified in vitro for 28 days through stimulation with the pool of 18 peptides and then tested through IFN-γ ELISPOT.

A further test addresses HLA-DRB1*0701 (Homo sapiens, UniProt P01903+P01911, A100R/A102G/A103Q/D57E/D86V/E43K/F76Y/K127E/L162R/M171V/P40G/Q125H/Q99D/R33Q/R42Y/R54Q/S133A/S66F/T210M/V115G/Y107V/Y59L/Y89S). The test is described as follows: Peptide-MHCII competition binding assay. To be noted: competition ELISA, pH 5.9, peptide 90.000nM – 0.9nM, HLA-DRB1 30 nM, biotinylated peptide 15nM, duplicate wells; ratios below 10 = good binding; reference peptide PVDLHAFLSQAVFS
For orientation: An ELISA detects its analyte on a solid surface through an enzyme-linked reagent.

The next test addresses HLA-DRB1*0401 (Homo sapiens, UniProt P01903+P01911, A100K/A169T/F76Y/I96L/K127E/L162R/M171V/N62H/P40V/Q125Y/R42H/S133A/S149N/S66Y/V115G/V209L/W38E). In words: Peptide-MHCII competition binding assay. To be noted: competition ELISA, pH 5.9, peptide 90.000nM – 0.9nM, HLA-DRB1 30 nM, biotinylated peptide 15nM, duplicate wells; ratios below 10 = good binding; reference peptide […].

Another test addresses HLA-DRB1*0301 (Homo sapiens, UniProt P01903+P01911, A100K/A102G/A103R/A169T/F55Y/I96L/K41T/L162R/M171V/P40S/Q125H/Q178H/Q39Y/R42S/S66N/T106N/T262R/W38E/Y61H). In words: Peptide-MHCII competition binding assay. To be noted: competition ELISA, pH 5.9, peptide 90.000nM – 0.9nM, HLA-DRB1 30 nM, biotinylated peptide 15nM, duplicate wells; ratios below 10 = good binding; reference peptide SFLLTDLINRRTPRVDGQ

As for “LSHVDLVKDLNSGLIGALLV [P178-197, 20-mer FVIII peptide, A1 domain]”, in test [1], the “nb positive T cell lines” value came to 19, the “cumulative donor coverage (%)” value is given as 81%, the “Donor coverage ( %)” value is reported as 56% and the responding donors is 9. Moreover, in test [1], the “response intensity ( %)” value is 2,18%. The “Ratio IC50 DRB1*0701” value on HLA-DRB1*0701 is on record as 0.4. Also, the “Ratio IC50 DRB1*0401” value at HLA-DRB1*0401 stood at 0.05. For the same sequence, the “Ratio IC50 DRB1*0301” value at HLA-DRB1*0301 was found to be 0.05.
On to “DHLFNIAKPRPPWMGLLGPT [P75-94, 20-mer FVIII peptide, A1 domain]”, for which, in test [1], the “nb positive T cell lines” value was found to be 38, the “cumulative donor coverage (%)” value worked out at 81%, the “Donor coverage ( %)” value is on record as 69% and the responding donors worked out at 11. In test [1], the “response intensity ( %)” value is 4,36%. At HLA-DRB1*0701, the “Ratio IC50 DRB1*0701” value is 1. Further, the “Ratio IC50 DRB1*0401” value at HLA-DRB1*0401 is 27. For the same sequence, the “Ratio IC50 DRB1*0301” value at HLA-DRB1*0301 amounted to 40.
Consider “VHSIFLEGHTFLVRNHRQAS [P285-304, 20-mer FVIII peptide, A1 domain]”, for which, in test [1], the “nb positive T cell lines” value is reported as 44, the “cumulative donor coverage (%)” value amounted to 75%, the “Donor coverage ( %)” value turned out to be 75% and the responding donors was 12. Moreover, in test [1], the “response intensity ( %)” value is reported as 5,05%. The “Ratio IC50 DRB1*0701” value on HLA-DRB1*0701 was 2. For the same sequence, the “Ratio IC50 DRB1*0401” value on HLA-DRB1*0401 is on record as 57.6. On HLA-DRB1*0301, the “Ratio IC50 DRB1*0301” value turned out to be 58.
Turning to “ATRRYYLGAVELSWDYMQSD [P20-39, 20-mer FVIII peptide, A1 domain]”, in test [1], the “nb positive T cell lines” value was 43, the “cumulative donor coverage (%)” value came out at 81%, the “Donor coverage ( %)” value is given as 62% and the responding donors is 10. Further, the “response intensity ( %)” value in test [1] is 4,93%. Further, the “Ratio IC50 DRB1*0701” value at HLA-DRB1*0701 is given as 0.5. Also, the “Ratio IC50 DRB1*0401” value at HLA-DRB1*0401 was 1.7. Moreover, at HLA-DRB1*0301, the “Ratio IC50 DRB1*0301” value is on record as 850.
As for “KKEEYKMALYNLYPGVFETV [P1986-2005, 20-mer FVIII peptide, A3 domain]”, in test [1], the “nb positive T cell lines” value was found to be 18, the “Donor coverage ( %)” value is reported as 50%, the responding donors is listed as 8 and the “response intensity ( %)” value is reported as 2,06%. The “Ratio IC50 DRB1*0701” value on HLA-DRB1*0701 was 0.2. Besides, the “Ratio IC50 DRB1*0401” value on HLA-DRB1*0401 worked out at 622.5.
Consider “SLYISQFIIMYSLDGKKWQT [P2114-2133, 20-mer FVIII peptide, C1 domain]”, for which, in test [1], the “nb positive T cell lines” value is given as 10, the “Donor coverage ( %)” value came to 50%, the responding donors stood at 8 and the “response intensity ( %)” value was 1,15%. Also, on HLA-DRB1*0701, the “Ratio IC50 DRB1*0701” value amounted to 0.1. Moreover, the “Ratio IC50 DRB1*0401” value at HLA-DRB1*0401 is reported as 0.6. Also, the “Ratio IC50 DRB1*0301” value at HLA-DRB1*0301 turned out to be 30.
As to “KEPFSWIKVDLLAPMIIHGI [P2084-2103, 20-mer FVIII peptide, C1 domain]”, in test [1], the “nb positive T cell lines” value was determined as 20, the “cumulative donor coverage (%)” value came to 94%, the “Donor coverage ( %)” value is on record as 56% and the responding donors was determined as 9. Moreover, the “response intensity ( %)” value in test [1] is recorded as 2,29%. Also, the “Ratio IC50 DRB1*0401” value at HLA-DRB1*0401 is listed as 1.9. The “Ratio IC50 DRB1*0301” value at HLA-DRB1*0301 was found to be 6.6.
As for PPIIARYIRLHPTHYSIRST [P2161-2180], in test [1], the “nb positive T cell lines” value is on record as 21, the “Donor coverage ( %)” value came to 56%, the responding donors was determined as 9 and the “response intensity ( %)” value was 2,41%. In addition, the “Ratio IC50 DRB1*0701” value on HLA-DRB1*0701 is 0.05. For the same sequence, the “Ratio IC50 DRB1*0401” value on HLA-DRB1*0401 came out at 5.6. Besides, the “Ratio IC50 DRB1*0301” value at HLA-DRB1*0301 is 21.
For the sequence “HPQSWVHQIALRMEVLGCEA [P2328-2347, 20-mer FVIII peptide, C2 domain]”, in test [1], the “nb positive T cell lines” value amounted to 23, the “Donor coverage ( %)” value is listed as 56%, the responding donors came to 9 and the “response intensity ( %)” value is on record as 2,64%. Besides, the “Ratio IC50 DRB1*0701” value at HLA-DRB1*0701 turned out to be 1. For the same sequence, the “Ratio IC50 DRB1*0401” value on HLA-DRB1*0401 is given as 1240. Besides, the “Ratio IC50 DRB1*0301” value on HLA-DRB1*0301 was determined as 0.0.
Consider “KARLHLQGRSNAWRPQVNNP [P2226-2245, 20-mer FVIII peptide, C2 domain]”, for which, in test [1], the “nb positive T cell lines” value was determined as 12, the “Donor coverage ( %)” value was 56%, the responding donors turned out to be 9 and the “response intensity ( %)” value is reported as 1,38%. For the same sequence, on HLA-DRB1*0701, the “Ratio IC50 DRB1*0701” value came to 0.05. For the same sequence, the “Ratio IC50 DRB1*0401” value on HLA-DRB1*0401 came to 3. Moreover, the “Ratio IC50 DRB1*0301” value on HLA-DRB1*0301 turned out to be 33.
In the case of “KLARLHYSGSINAWSTKEPF [P2068-2087, 20-mer FVIII peptide, C1 domain]”, in test [1], the “nb positive T cell lines” value is given as 20, the “Donor coverage ( %)” value was found to be 50%, the responding donors worked out at 8 and the “response intensity ( %)” value is on record as 2,29%. Moreover, on HLA-DRB1*0701, the “Ratio IC50 DRB1*0701” value is recorded as 0.35. For the same sequence, the “Ratio IC50 DRB1*0401” value at HLA-DRB1*0401 came out at 0.2.
Take “RHYFIAAVERLWDYGMSSSP [P1715-1734, 20-mer FVIII peptide, A3 domain]”: in test [1], the “nb positive T cell lines” value worked out at 16, the “Donor coverage ( %)” value is reported as 50%, the responding donors is 8 and the “response intensity ( %)” value is 1,83%. Further, the “Ratio IC50 DRB1*0701” value on HLA-DRB1*0701 was 1. Further, the “Ratio IC50 DRB1*0401” value at HLA-DRB1*0401 worked out at 138.
“LLTRYLRIHPQSWVHQIALR [P2320-2339, 20-mer FVIII peptide, C2 domain]”: in test [1], the “nb positive T cell lines” value came to 10, the “Donor coverage ( %)” value turned out to be 50%, the responding donors is 8 and the “response intensity ( %)” value was 1,15%. The “Ratio IC50 DRB1*0701” value at HLA-DRB1*0701 came out at 0.05. Also, the “Ratio IC50 DRB1*0401” value on HLA-DRB1*0401 came to 76. For the same sequence, the “Ratio IC50 DRB1*0301” value on HLA-DRB1*0301 amounted to 114.
Take “INGYIMDTLPGLVMAQDQRI [P1940-1959, 20-mer FVIII peptide, A3 domain]”: in test [1], the “nb positive T cell lines” value was determined as 14, the “cumulative donor coverage (%)” value was 94%, the “Donor coverage ( %)” value was 56% and the responding donors came out at 9. The “response intensity ( %)” value in test [1] is recorded as 1,61%. Also, the “Ratio IC50 DRB1*0701” value on HLA-DRB1*0701 is 1.1. For the same sequence, on HLA-DRB1*0401, the “Ratio IC50 DRB1*0401” value was determined as 0.1.
For the sequence “LGQFLLFCHISSHQHDGMEA [P322-341, 20-mer FVIII peptide, A1 domain]”, in test [1], the “nb positive T cell lines” value is 27, the “cumulative donor coverage (%)” value is on record as 81%, the “Donor coverage ( %)” value came to 62% and the responding donors was determined as 10. Further, in test [1], the “response intensity ( %)” value is 3,10%. The “Ratio IC50 DRB1*0701” value on HLA-DRB1*0701 was 0.6.
